Literature values in patent US8580317B2, “Compositions and methods for treating acne” (Revance Therapeutics, Inc., priority 2005, dated 2013).

Tests used:
[1] = benzoyl peroxide topically applied
[2] = tested on: propionibacterium acnes (P. Acnes); settings: background statement

O=C(OOC(=O)c1ccccc1)c1ccccc1 [benzoyl peroxide]
share of the population that experiences skin allergies [1]: about 10% | kills P. acnes compared with other medications [2]: better than any other medication on the market
